In brackets after ≈: the same amount, converted by molar mass.
Columns and labels:
Test in all cases: ≥ marks a high value that may be exact or a test limit, other limits are often not marked, values filed in µg/mL are converted to µM
Staphylococcus aureus = system: Staphylococcus aureus
Escherichia coli O157 = system: Escherichia coli O157
Staphylococcus aureus 4 = system: Staphylococcus aureus 4
Pseudomonas aeruginosa 5 = system: Pseudomonas aeruginosa 5
Enterococcus faecium = system: Enterococcus faecium
Pseudomonas aeruginosa 1 = system: Pseudomonas aeruginosa 1
Pseudomonas aeruginosa 2 = system: Pseudomonas aeruginosa 2
Staphylococcus aureus 1 = system: Staphylococcus aureus 1
Staphylococcus aureus 5 = system: Staphylococcus aureus 5
[1] = system: Proteus mirabilis ATCC 25933
[2] = system: Enterococcus faecalis ATCC 12953
[3] = system: Bacillus subtilis ATCC 6633
[4] = system: Staphylococcus aureus ATCC 29213
[5] = system: Pseudomonas aeruginosa ATCC 15442
[6] = system: Klebsiella pneumoniae ATCC 13885
[7] = system: Escherichia coli ATCC 8739
[8] = system: Salmonella enterica subsp. enterica serovar Typhimurium ATCC 14028
[9] = system: Streptococcus pyogenes ATCC 19615
[10] = system: Staphylococcus epidermidis ATCC 12228
Escherichia coli D21 = system: Escherichia coli D21
[11] = system: Staphylococcus aureus Cowan 1
[12] = system: Enterococcus faecalis ATCC 29212
[13] = system: Streptococcus pyogenes ATCC 21547
Bacillus megaterium Bm11 = system: Bacillus megaterium Bm11
[14] = system: Acinetobacter baumannii ATCC 19606
Saccharomyces cerevisiae = system: Saccharomyces cerevisiae
[15] = system: Schizosaccharomyces pombe
[16] = system: Staphylococcus aureus ATCC 25923
Staphylococcus capitis 1 = system: Staphylococcus capitis 1
[17] = system: Escherichia coli ATCC 25922
[18] = system: Pseudomonas aeruginosa ATCC 27853
[19] = system: Pseudomonas syringae pv. tabaci 1918NCPPB
Acinetobacter junii RT-4 = system: Acinetobacter junii RT-4
[20] = system: Candida albicans ATCC 10231
[21] = system: Yersinia pseudotuberculosis YPIII
[22] = system: Pseudomonas aeruginosa ATCC 15692
Candida parapsilosis = system: Candida parapsilosis
Candida krusei ATCC 6258 = system: Candida krusei ATCC 6258
Candida krusei = system: Candida krusei
[23] = system: Enterobacter cloacae HNTCC 53001
Candida albicans = system: Candida albicans
[24] = system: Candida albicans ATCC 90028
[25] = system: Klebsiella pneumoniae KK3 9904
[26] = system: Candida tropicalis B51a/5
Candida tropicalis = system: Candida tropicalis
[27] = system: Candida parapsilosis ATCC 22019
[28] = system: Staphylococcus epidermidis RP62A

With `CC[C@H](C)[C@H](NC(=O)[C@H](CC(C)C)NC(=O)[C@H](CCCN=C(N)N)NC(=O)[C@@H](NC(=O)[C@H](C)NC(=O)[C@H](CCCCN)NC(=O)[C@H](CO)NC(=O)[C@H](CC(C)C)NC(=O)[C@@H](N)CCC(=O)O)C(C)C)C(=O)N[C@@H](CCCCN)C(=O)O` [ELSKAVRLIK] the MIC (Staphylococcus aureus) was 20 µM (≈ 23.1 µg/mL), the MIC (Escherichia coli O157) was 20 µM (≈ 23.1 µg/mL) and the MIC (Staphylococcus aureus 4) was 14.1 µM (≈ 16.4 µg/mL). It also gave an MIC (Pseudomonas aeruginosa 5) of 14.1 µM (≈ 16.4 µg/mL), an MIC (Enterococcus faecium) of 10 µM (≈ 11.6 µg/mL) and an MIC (Pseudomonas aeruginosa 1) of 20 µM (≈ 23.1 µg/mL). The MIC (Pseudomonas aeruginosa 2) was 10 µM (≈ 11.6 µg/mL), the MIC (Staphylococcus aureus 1) was 10 µM (≈ 11.6 µg/mL) and the MIC (Staphylococcus aureus 5) was at least 40 µM.
Work on `CC[C@H](C)[C@H](N)C(=O)N[C@@H](CCCCN)C(=O)N[C@@H](Cc1ccccc1)C(=O)N[C@@H](CCC(=O)O)C(=O)N1CCC[C@H]1C(=O)N1CCC[C@H]1C(=O)N[C@@H](CC(C)C)C(=O)N1CCC[C@H]1C(=O)N1CCC[C@H]1C(=O)N[C@@H](CCCCN)C(=O)N[C@@H](CCCCN)C(=O)N[C@@H](C)C(=O)N[C@@H](Cc1cnc[nH]1)C(N)=O` [IKFEPPLPPKKAH] yielded an MIC [1] of at least 42.6 µM, an MIC [2] of at least 42.6 µM and an MIC [3] of at least 42.6 µM. For the same compound, the MIC [4] was 42.6 µM (≈ 64 µg/mL), the MIC [5] was 21.3 µM (≈ 32 µg/mL) and the MIC [6] was 21.3 µM (≈ 32 µg/mL). For the same compound, the MIC [7] was 21.3 µM (≈ 32 µg/mL), the MIC [8] was 42.6 µM (≈ 64 µg/mL) and the MIC [9] was at least 42.6 µM.
With `CC[C@H](C)[C@H](NC(=O)[C@H](CCCN=C(N)N)NC(=O)CNC(=O)[C@H](CC(C)C)NC(=O)[C@H](Cc1ccccc1)NC(=O)[C@H](CCCCN)NC(=O)[C@H](CO)NC(=O)[C@H](Cc1ccccc1)NC(=O)[C@H](Cc1c[nH]c2ccccc12)NC(=O)[C@H](CCCN=C(N)N)NC(=O)[C@@H](NC(=O)[C@@H](N)Cc1ccccc1)C(C)C)C(=O)N[C@@H](CC(C)C)C(N)=O` [FVRWFSKFLGRIL] the MIC [10] was 3 µM (≈ 5 µg/mL), the MIC (Escherichia coli D21) was 12 µM (≈ 20 µg/mL) and the MIC [11] was 6 µM (≈ 10 µg/mL). The MIC [12] was 12 µM (≈ 20 µg/mL), the MIC [13] was 3 µM (≈ 5 µg/mL) and the MIC (Bacillus megaterium Bm11) was 3 µM (≈ 5 µg/mL). For the same compound, the MIC [14] was 6 µM (≈ 10 µg/mL), the MIC (Saccharomyces cerevisiae) was 24 µM (≈ 40 µg/mL) and the MIC [15] was 12 µM (≈ 20 µg/mL). The MIC [16] was 6 µM (≈ 10 µg/mL), the MIC (Staphylococcus capitis 1) was 3 µM (≈ 5 µg/mL) and the MIC [17] was 24 µM (≈ 40 µg/mL). For the same compound, the MIC [18] was 24 µM (≈ 40 µg/mL), the MIC [19] was 6 µM (≈ 10 µg/mL) and the MIC (Acinetobacter junii RT-4) was 3 µM (≈ 5 µg/mL). For the same compound, the MIC [20] was 12 µM (≈ 20 µg/mL), the MIC [21] was 3 µM (≈ 5 µg/mL) and the MIC [22] was 12 µM (≈ 20 µg/mL).
`CC[C@H](C)[C@H](NC(=O)[C@@H]1CCCN1C(=O)[C@H](CC(C)C)NC(=O)[C@@H](N)Cc1ccccc1)C(=O)N[C@@H](CC(C)C)C(=O)N[C@@H](C)C(=O)N[C@@H](CO)C(=O)N[C@@H](CC(C)C)C(=O)N[C@@H](C)C(=O)N[C@@H](C)C(=O)N[C@@H](CCCCN)C(=O)N[C@@H](Cc1ccccc1)C(=O)NCC(=O)N1CCC[C@H]1C(=O)N[C@@H](CCCCN)C(=O)N[C@@H](CC(C)C)C(=O)N[C@@H](Cc1ccccc1)C(=O)N[C@@H](CO)C(=O)N[C@@H](CC(C)C)C(=O)N[C@H](C(=O)N[C@H](C(=O)N[C@@H](CCCCN)C(=O)N[C@@H](CCCCN)C(=O)N[C@@H](CO)C(=O)O)[C@@H](C)O)C(C)C` [FLPILASLAAKFGPKLFSLVTKKS] showed an MIC (Candida parapsilosis) of at least 40 µM, an MIC [1] of at least 40 µM and an MIC (Candida krusei ATCC 6258) of at least 40 µM. It also gave an MIC (Candida krusei) of at least 40 µM, an MIC [12] of 20 µM (≈ 51.5 µg/mL) and an MIC [23] of at least 40 µM. It also gave an MIC (Candida albicans) of 40 µM (≈ 103 µg/mL), an MIC [16] of 3 µM (≈ 7.73 µg/mL) and an MIC [17] of 50 µM (≈ 129 µg/mL). The MIC [18] was 40 µM (≈ 103 µg/mL), the MIC [24] was 25 µM (≈ 64.4 µg/mL) and the MIC [25] was at least 40 µM. The MIC [26] was 10 µM (≈ 25.8 µg/mL), the MIC (Candida tropicalis) was 20 µM (≈ 51.5 µg/mL) and the MIC [27] was at least 40 µM. The MIC [28] was 5 µM (≈ 12.9 µg/mL).

Reference: DBAASP
